In patent US20210238173A1, “MITOGEN-ACTIVATED PROTEIN KINASE KINASE 7 INHIBITORS” (Yeda Research and Development Co. Ltd., priority 2018, published 2021):

Key:
p-cJun in HEK293 cells = test: p-cJun inhibition in HEK293 cells; format: cell-based; settings: Homo sapiens
Protocol: HEK293, Beas2B and 3T3 cells were plated 24 hours before procedure on 384 well clear bottom black flat plates (Corning) pre-coated with Fibronectin (Sigma) diluted in PBS to a concentration of 5 μg/ml 45 minutes prior to cells introduction. Cells were plated using Multidrop™ Combi reagent dispenser (Thermo Fisher Scientific). Compound, reagents and antibody dispensing as well as washes were performed with a CyBio liquid handler (Analytik). Cells were pre-incubated with a small molecule or up to 1% DMSO for 2 h before fixation. HEK293, 3T3 or Beas2B cells were treated with 0.6M/0.2M/0.2M D-Sorbitol/PBS (Sigma) for 20/40/40 min. respectively, before fixation. Media was removed and wells were immediately fixed with 150 μl per well of 3.7% formaldehyde/PBS fixing solution for 20 min. Formaldehyde was then aspired and cells were permeabilized with 150 μl of 0.5% Triton x-100/PBS solution for 10 min. After aspiration cells were washed with ice-cold methanol and stored at −20° C., for 10 min. Methanol was aspired and cells were blocked with 150 μl blocking buffer (LICOR) for 90 min. Primary antibody Phospho-SAPK/JNK T183/Y185 (CST; 9251S) was diluted 1:1000 in blocking buffer and was applied 50 μl per well, except control wells to which only blocking buffer was applied, O.N. (16 h) at 4° C. with mild shaking. […] Wells signals were analyzed with Odyssey software. […]
To rapidly assess the cellular activity (EC50) with full dose response curves of the MKK7 covalent inhibitors, according to some embodiments of the present invention, an in-cell western assay was adapted to a 384 well plate format over traditional western blot, and monitored phospho-JNK (pJNK) levels in response to osmotic shock. […] The compound's activity was assessed by pre-treating cells with either compound or DMSO for 2 hours, followed by Sorbitol stimulation. The response of pJNK, and its substrates, pc-Jun and pATF2, was measured, as well as pP38, which is a substrate of MKK4 but not MKK7, and pERK in HEK293 cells, and the results are presented in Table 5 below.

BTK = BTK (Homo sapiens, UniProt Q06187); test: Kinome selectivity screen BTK; format: biochemical; settings: 1 μM compound
Protocol: (§1) Kinome Selectivity Screen:
(§2) Kinase selectivity was assessed using the Life Technologies SelectScreen Kinase Profiling Service in a custom panel of 76 kinases selected to provide broad representative coverage of all kinase families. Kinase activity assays employed either the Z′-LYTE or Adapta assay technologies with ATP concentrations at or near the KM, ATP for each kinase and a test compound concentration of 1 μM.

CHEK1 (CHK1) = CHEK1 (CHK1) (Homo sapiens, UniProt O14757); test: Kinome selectivity screen CHEK1; format: biochemical; settings: 1 μM compound
Protocol: as §1, §2

CLK1 = CLK1 (Homo sapiens, UniProt P49759); test: Kinome selectivity screen CLK1; format: biochemical; settings: 1 μM compound
Protocol: as §1, §2

CSNK1G2 (CK1 gamma 2) = CSNK1G2 (CK1 gamma 2) (Homo sapiens, UniProt P78368); test: Kinome selectivity screen CSNK1G2; format: biochemical; settings: 1 μM compound
Protocol: as §1, §2

CSNK2A1 (CK2 alpha 1) = CSNK2A1 (CK2 alpha 1) (Homo sapiens, UniProt P68400); test: Kinome selectivity screen CSNK2A1; format: biochemical; settings: 1 μM compound
Protocol: as §1, §2

DCAMKL2 (DCK2) = DCAMKL2 (DCK2) (Homo sapiens, UniProt Q8N568); test: Kinome selectivity screen DCAMKL2; format: biochemical; settings: 1 μM compound
Protocol: as §1, §2

EPHA2 = EPHA2 (Homo sapiens, UniProt P29317); test: Kinome selectivity screen EPHA2; format: biochemical; settings: 1 μM compound
Protocol: as §1, §2

EPHB1 = EPHB1 (Homo sapiens, UniProt P54762); test: Kinome selectivity screen EPHB1; format: biochemical; settings: 1 μM compound
Protocol: as §1, §2

FLT3 = FLT3 (Homo sapiens, UniProt P36888); test: Kinome selectivity screen FLT3; format: biochemical; settings: 1 μM compound
Protocol: as §1, §2

FRAP1 (mTOR) = FRAP1 (mTOR) (Homo sapiens, UniProt P42345); test: Kinome selectivity screen FRAP1; format: biochemical; settings: 1 μM compound
Protocol: as §1, §2

IKBKB (IKK beta) = IKBKB (IKK beta) (Homo sapiens, UniProt O14920); test: Kinome selectivity screen IKBKB; format: biochemical; settings: 1 μM compound
Protocol: as §1, §2

MAP3K8 (COT) = MAP3K8 (COT) (Homo sapiens, UniProt P41279); test: Kinome selectivity screen MAP3K8; format: biochemical; settings: 1 μM compound
Protocol: as §1, §2

MAP3K9 (MLK1) = MAP3K9 (MLK1) (Homo sapiens, UniProt P80192); test: Kinome selectivity screen MAP3K9; format: biochemical; settings: 1 μM compound
Protocol: as §1, §2

NEK1 = NEK1 (Homo sapiens, UniProt Q96PY6); test: Kinome selectivity screen NEK1; format: biochemical; settings: 1 μM compound
Protocol: as §1, §2

PAK4 = PAK4 (Homo sapiens, UniProt O96013); test: Kinome selectivity screen PAK4; format: biochemical; settings: 1 μM compound
Protocol: as §1, §2

PDGFRB (PDGFR beta) = PDGFRB (PDGFR beta) (Homo sapiens, UniProt P09619); test: Kinome selectivity screen PDGFRB; format: biochemical; settings: 1 μM compound
Protocol: as §1, §2

PHKG2 = PHKG2 (Homo sapiens, UniProt P15735); test: Kinome selectivity screen PHKG2; format: biochemical; settings: 1 μM compound
Protocol: as §1, §2

PRKCB1 (PKC beta I) = PRKCB1 (PKC beta I) (Homo sapiens, UniProt P05771); test: Kinome selectivity screen PRKCB1; format: biochemical; settings: 1 μM compound
Protocol: as §1, §2

ROCK1 = ROCK1 (Homo sapiens, UniProt Q13464); test: Kinome selectivity screen ROCK1; format: biochemical; settings: 1 μM compound
Protocol: as §1, §2

ROCK2 = ROCK2 (Homo sapiens, UniProt O75116); test: Kinome selectivity screen ROCK2; format: biochemical; settings: 1 μM compound
Protocol: as §1, §2

RPS6KB1 (p70S6K) = RPS6KB1 (p70S6K) (Homo sapiens, UniProt P23443); test: Kinome selectivity screen RPS6KB1; format: biochemical; settings: 1 μM compound
Protocol: as §1, §2

Sequence of NEK1 (Q96PY6 whole entry): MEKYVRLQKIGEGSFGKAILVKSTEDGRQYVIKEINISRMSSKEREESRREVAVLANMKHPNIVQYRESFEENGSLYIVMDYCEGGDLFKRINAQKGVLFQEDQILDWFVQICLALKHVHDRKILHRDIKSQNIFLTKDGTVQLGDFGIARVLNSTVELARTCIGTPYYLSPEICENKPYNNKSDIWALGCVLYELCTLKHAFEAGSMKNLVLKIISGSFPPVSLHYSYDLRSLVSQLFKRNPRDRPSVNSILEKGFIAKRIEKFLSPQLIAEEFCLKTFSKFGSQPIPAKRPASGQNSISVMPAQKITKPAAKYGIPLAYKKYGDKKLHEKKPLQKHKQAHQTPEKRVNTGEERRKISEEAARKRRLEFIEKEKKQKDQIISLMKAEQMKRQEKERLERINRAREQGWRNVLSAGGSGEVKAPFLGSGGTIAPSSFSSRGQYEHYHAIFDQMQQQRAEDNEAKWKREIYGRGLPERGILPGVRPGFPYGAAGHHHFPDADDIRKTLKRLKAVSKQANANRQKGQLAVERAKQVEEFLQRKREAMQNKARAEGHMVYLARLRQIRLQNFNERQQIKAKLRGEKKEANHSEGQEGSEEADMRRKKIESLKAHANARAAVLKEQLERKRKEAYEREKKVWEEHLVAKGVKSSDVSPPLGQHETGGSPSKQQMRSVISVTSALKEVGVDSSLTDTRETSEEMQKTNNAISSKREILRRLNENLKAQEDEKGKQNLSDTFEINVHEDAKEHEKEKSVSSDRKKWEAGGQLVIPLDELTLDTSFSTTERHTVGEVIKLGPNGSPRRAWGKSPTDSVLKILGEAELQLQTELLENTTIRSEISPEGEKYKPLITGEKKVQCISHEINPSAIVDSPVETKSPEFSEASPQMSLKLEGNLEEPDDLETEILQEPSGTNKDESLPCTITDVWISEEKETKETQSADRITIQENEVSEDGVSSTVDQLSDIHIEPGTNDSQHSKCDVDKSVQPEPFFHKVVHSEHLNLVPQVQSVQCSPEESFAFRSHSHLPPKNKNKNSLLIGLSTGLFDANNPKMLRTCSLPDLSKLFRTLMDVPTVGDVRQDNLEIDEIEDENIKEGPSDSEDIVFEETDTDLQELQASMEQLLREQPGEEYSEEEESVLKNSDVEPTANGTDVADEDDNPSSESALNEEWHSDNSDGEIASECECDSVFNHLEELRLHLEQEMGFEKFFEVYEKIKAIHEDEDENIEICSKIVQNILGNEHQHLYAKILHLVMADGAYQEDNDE
Sequence of PRKCB1 (PKC beta I) (P05771 whole entry): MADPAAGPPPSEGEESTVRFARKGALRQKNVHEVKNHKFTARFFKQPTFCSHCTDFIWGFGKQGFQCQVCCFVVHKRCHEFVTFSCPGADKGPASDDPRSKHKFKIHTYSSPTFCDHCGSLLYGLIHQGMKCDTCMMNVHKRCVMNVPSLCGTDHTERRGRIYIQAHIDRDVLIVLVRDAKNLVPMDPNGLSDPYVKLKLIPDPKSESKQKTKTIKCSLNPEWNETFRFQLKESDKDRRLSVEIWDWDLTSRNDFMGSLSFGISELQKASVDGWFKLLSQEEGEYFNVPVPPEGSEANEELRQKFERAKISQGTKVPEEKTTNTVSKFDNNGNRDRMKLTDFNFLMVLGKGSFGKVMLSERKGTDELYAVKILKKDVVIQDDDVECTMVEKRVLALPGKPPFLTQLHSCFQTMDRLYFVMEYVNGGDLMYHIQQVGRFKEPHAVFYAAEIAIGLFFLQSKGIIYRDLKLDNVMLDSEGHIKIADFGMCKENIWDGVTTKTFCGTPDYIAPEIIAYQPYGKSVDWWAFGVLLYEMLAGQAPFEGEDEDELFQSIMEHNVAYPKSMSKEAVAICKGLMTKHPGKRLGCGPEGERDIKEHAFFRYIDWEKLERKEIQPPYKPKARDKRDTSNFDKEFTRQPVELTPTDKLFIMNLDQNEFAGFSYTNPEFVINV
Sequence of CLK1 (P49759 whole entry): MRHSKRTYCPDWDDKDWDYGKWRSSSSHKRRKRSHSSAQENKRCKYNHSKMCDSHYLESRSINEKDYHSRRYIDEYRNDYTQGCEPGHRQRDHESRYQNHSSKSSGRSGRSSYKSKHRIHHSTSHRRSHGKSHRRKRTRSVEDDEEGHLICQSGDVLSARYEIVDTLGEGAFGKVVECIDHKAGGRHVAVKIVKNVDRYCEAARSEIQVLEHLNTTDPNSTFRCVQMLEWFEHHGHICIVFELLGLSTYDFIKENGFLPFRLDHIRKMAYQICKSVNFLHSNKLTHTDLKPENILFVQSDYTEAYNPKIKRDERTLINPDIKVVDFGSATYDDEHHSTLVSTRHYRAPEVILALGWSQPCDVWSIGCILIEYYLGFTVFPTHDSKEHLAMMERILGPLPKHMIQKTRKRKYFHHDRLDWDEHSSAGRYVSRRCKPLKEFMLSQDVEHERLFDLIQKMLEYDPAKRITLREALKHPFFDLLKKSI
Sequence of RPS6KB1 (p70S6K) (P23443 whole entry): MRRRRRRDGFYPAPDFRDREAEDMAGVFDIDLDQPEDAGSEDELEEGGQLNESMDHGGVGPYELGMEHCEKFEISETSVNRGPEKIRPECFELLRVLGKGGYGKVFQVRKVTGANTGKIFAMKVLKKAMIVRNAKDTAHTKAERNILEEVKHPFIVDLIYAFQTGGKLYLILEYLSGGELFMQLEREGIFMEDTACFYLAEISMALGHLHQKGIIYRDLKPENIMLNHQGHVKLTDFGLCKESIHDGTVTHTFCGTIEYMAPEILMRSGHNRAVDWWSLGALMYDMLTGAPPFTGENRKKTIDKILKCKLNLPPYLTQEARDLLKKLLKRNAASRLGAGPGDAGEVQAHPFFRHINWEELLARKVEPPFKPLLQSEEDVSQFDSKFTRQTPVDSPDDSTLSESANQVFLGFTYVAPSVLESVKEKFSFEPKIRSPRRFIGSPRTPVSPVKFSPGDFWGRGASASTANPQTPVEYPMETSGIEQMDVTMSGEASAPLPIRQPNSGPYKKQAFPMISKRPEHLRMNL
Sequence of FLT3 (P36888 27-993): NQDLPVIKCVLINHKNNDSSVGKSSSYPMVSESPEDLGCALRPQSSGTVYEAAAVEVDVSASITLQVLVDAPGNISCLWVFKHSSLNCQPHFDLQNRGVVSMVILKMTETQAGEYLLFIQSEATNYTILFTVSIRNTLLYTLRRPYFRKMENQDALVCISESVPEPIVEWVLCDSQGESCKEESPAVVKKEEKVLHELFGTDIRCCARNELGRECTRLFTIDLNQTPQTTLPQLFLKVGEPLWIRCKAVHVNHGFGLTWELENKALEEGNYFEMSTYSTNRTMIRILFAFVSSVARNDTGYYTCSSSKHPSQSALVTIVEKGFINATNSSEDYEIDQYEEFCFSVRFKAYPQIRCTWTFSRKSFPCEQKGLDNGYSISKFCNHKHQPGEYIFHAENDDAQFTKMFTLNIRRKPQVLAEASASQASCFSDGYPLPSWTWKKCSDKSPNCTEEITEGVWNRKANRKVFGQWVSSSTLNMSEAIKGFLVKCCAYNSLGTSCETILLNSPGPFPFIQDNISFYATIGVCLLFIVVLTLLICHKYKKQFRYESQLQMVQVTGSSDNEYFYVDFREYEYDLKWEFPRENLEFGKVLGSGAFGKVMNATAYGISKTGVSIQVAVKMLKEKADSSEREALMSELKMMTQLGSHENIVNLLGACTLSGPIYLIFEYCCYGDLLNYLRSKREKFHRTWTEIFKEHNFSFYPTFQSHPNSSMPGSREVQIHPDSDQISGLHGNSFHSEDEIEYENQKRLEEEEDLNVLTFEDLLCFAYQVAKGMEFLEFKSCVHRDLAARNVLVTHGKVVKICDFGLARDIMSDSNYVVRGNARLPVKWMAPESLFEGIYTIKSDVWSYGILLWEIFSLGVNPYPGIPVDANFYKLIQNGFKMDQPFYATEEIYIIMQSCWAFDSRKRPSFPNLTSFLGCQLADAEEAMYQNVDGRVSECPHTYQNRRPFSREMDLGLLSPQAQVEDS
Sequence of BTK (Q06187 whole entry): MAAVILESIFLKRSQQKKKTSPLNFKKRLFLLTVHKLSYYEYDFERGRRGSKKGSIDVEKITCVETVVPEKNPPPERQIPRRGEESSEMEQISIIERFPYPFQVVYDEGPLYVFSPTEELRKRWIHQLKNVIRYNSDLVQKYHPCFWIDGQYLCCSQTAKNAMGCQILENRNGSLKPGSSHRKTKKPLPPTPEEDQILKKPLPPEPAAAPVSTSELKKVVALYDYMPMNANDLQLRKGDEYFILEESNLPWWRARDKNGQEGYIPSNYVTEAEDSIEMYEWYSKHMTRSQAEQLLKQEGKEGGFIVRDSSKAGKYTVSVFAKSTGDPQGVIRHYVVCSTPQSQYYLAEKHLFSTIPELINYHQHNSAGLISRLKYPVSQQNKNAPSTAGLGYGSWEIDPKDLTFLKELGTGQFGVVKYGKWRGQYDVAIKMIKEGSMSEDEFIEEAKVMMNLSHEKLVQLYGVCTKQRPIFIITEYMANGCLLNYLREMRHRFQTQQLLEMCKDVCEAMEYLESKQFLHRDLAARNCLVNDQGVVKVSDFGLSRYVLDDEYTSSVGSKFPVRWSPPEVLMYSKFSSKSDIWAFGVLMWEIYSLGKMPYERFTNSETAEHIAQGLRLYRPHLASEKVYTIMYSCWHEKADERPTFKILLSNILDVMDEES
Sequence of CHEK1 (CHK1) (O14757 whole entry): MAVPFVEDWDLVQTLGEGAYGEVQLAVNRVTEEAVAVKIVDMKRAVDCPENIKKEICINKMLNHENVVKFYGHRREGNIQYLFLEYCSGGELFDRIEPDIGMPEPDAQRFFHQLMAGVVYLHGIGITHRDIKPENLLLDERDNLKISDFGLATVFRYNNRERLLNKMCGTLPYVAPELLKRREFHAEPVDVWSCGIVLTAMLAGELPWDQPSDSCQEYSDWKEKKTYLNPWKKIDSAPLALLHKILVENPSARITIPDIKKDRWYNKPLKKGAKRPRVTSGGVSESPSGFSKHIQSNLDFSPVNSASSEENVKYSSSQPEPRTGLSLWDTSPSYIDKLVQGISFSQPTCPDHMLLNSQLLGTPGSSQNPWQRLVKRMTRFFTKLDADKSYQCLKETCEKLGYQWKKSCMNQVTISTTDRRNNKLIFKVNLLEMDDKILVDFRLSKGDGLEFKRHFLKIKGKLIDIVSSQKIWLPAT

**Q.** For `C=CC(=O)Nc1cccc(-c2n[nH]c3ccccc23)c1` [GO32], which EC50 (p-cJun in HEK293 cells) is on record?
**A.** 2260 nM

**Q.** And the inhibition at 1 µM (BTK)?
**A.** 11%

**Q.** What about the inhibition at 1 µM (CHEK1 (CHK1)) of the same compound?
**A.** 10%

**Q.** And the inhibition at 1 µM (CLK1)?
**A.** 14%

**Q.** And the inhibition at 1 µM (CSNK1G2 (CK1 gamma 2))?
**A.** 3%

**Q.** And the inhibition at 1 µM (CSNK2A1 (CK2 alpha 1))?
**A.** 0%

**Q.** What about the inhibition at 1 µM (DCAMKL2 (DCK2)) of the same compound?
**A.** -2%

**Q.** What about the inhibition at 1 µM (EPHA2) of the same compound?
**A.** -16%

**Q.** And the inhibition at 1 µM (EPHB1)?
**A.** -4%

**Q.** And the inhibition at 1 µM (FLT3)?
**A.** 55%

**Q.** What about the inhibition at 1 µM (FRAP1 (mTOR)) of the same compound?
**A.** -2%

**Q.** And the inhibition at 1 µM (IKBKB (IKK beta))?
**A.** -3%

**Q.** What about the inhibition at 1 µM (MAP3K8 (COT)) of the same compound?
**A.** -7%

**Q.** And the inhibition at 1 µM (MAP3K9 (MLK1))?
**A.** 37%

**Q.** And the inhibition at 1 µM (NEK1)?
**A.** 5%

**Q.** What about the inhibition at 1 µM (PAK4) of the same compound?
**A.** -11%

**Q.** And the inhibition at 1 µM (PDGFRB (PDGFR beta))?
**A.** -3%

**Q.** What about the inhibition at 1 µM (PHKG2) of the same compound?
**A.** 1%

**Q.** What about the inhibition at 1 µM (PRKCB1 (PKC beta I)) of the same compound?
**A.** 1%

**Q.** And the inhibition at 1 µM (ROCK1)?
**A.** -3%

**Q.** What about the inhibition at 1 µM (ROCK2) of the same compound?
**A.** -2%

**Q.** What about the inhibition at 1 µM (RPS6KB1 (p70S6K)) of the same compound?
**A.** 5%

**Q.** With `C=CC(=O)Nc1cccc(-c2n[nH]c3cc(C)ccc23)c1` [GO80] as the compound, how does the EC50 (p-cJun in HEK293 cells) read?
**A.** 1670 nM

**Q.** And the inhibition at 1 µM (BTK)?
**A.** 15%

**Q.** What about the inhibition at 1 µM (CHEK1 (CHK1)) of the same compound?
**A.** 2%

**Q.** What about the inhibition at 1 µM (CLK1) of the same compound?
**A.** 2%

**Q.** What about the inhibition at 1 µM (CSNK1G2 (CK1 gamma 2)) of the same compound?
**A.** -13%

**Q.** And the inhibition at 1 µM (CSNK2A1 (CK2 alpha 1))?
**A.** -2%

**Q.** And the inhibition at 1 µM (DCAMKL2 (DCK2))?
**A.** -1%

**Q.** And the inhibition at 1 µM (EPHA2)?
**A.** -13%

**Q.** And the inhibition at 1 µM (EPHB1)?
**A.** -2%

**Q.** And the inhibition at 1 µM (FLT3)?
**A.** 79%

**Q.** And the inhibition at 1 µM (FRAP1 (mTOR))?
**A.** -2%

**Q.** And the inhibition at 1 µM (IKBKB (IKK beta))?
**A.** -5%

**Q.** What about the inhibition at 1 µM (MAP3K8 (COT)) of the same compound?
**A.** -12%

**Q.** And the inhibition at 1 µM (MAP3K9 (MLK1))?
**A.** 8%

**Q.** And the inhibition at 1 µM (NEK1)?
**A.** 2%

**Q.** And the inhibition at 1 µM (PAK4)?
**A.** -16%

**Q.** And the inhibition at 1 µM (PDGFRB (PDGFR beta))?
**A.** -13%

**Q.** And the inhibition at 1 µM (PHKG2)?
**A.** 7%

**Q.** What about the inhibition at 1 µM (PRKCB1 (PKC beta I)) of the same compound?
**A.** 5%

**Q.** And the inhibition at 1 µM (ROCK1)?
**A.** 3%

**Q.** And the inhibition at 1 µM (ROCK2)?
**A.** -4%

**Q.** What about the inhibition at 1 µM (RPS6KB1 (p70S6K)) of the same compound?
**A.** 0%
